Measured values from publication PMC10331583, “Control of fibrosis with enhanced safety via asymmetric inhibition of prolyl‐tRNA synthetase 1” (EMBO Molecular Medicine, 2023).
pIC50, pKd: −log10 of the molar value. Where “and” joins values, the source holds several entries; their conditions need not be identical. Equal entries are not always repeated. Where two headings read alike, the source gives them in different places.

What was measured:
[1] = molecular target: T1, His‐PARS1 (Homo sapiens, UniProt P07814); test: Surface plasmon resonance (SPR); assay type: binding; conditions: read-out: KD
T1 construct: His‐PARS1 (1001–1,512 aa); made in house; host or cells: Escherichia coli
T1 sequence (P07814 1001-1512 limits assumed): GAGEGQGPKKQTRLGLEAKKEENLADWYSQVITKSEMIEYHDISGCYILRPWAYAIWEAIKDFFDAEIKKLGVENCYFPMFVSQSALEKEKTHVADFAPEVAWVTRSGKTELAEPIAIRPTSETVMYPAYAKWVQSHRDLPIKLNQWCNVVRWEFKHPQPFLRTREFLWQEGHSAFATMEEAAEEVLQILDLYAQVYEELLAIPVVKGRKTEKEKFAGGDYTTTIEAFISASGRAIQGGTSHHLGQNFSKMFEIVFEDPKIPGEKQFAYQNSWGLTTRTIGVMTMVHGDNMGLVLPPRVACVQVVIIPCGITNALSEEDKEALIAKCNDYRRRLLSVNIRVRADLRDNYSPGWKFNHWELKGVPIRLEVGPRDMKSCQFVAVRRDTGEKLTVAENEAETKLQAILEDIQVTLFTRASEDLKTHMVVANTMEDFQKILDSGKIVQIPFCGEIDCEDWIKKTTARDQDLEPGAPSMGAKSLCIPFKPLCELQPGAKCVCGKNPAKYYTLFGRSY

[2] = system: C57BL/6 mice; test: Bleomycin‐induced lung fibrosis, therapeutic model 1 (compounds from a week after bleomycin); assay type: in vivo; conditions: for BALF total cell count, average / BALF total cell count, single animal / Collagen contents, average / Collagen contents, single animal / Fibrotic area, average / Fibrotic area, single animal / SpO2, average / SpO2, single animal: BLM +
Procedure: To examine therapeutic efficacy of DWN12088, all experiments were conducted following the international guidelines on the ethical use of experimental animals and approved by the Institutional Animal Care and Use Committee of Daewoong Pharmaceutical (IACUC‐21‐014). C57BL/6 mice (7–8‐week‐old, male, obtained from Orient Bio) were anesthetized with Zoletil and injected intratracheally with 100 μl bleomycin (2 units/kg) (Merck, B8416) to induce lung fibrosis. A group of disease‐free mice (“untreated”) were injected with PBS instead of bleomycin. After a week, mice treated with bleomycin were randomized to (i) vehicle (saline), (ii) HF 0.05 mg/kg, (iii) HF 0.1 mg/kg, and (iv) DWN12088 10 mg/kg groups (n = 5 for each group) according to their body weight. The drugs were orally administered once daily for 2 weeks, and then the outcome was analyzed. For the experiments testing the effect of the compounds 2 weeks after bleomycin challenge, the experiment was approved by IACUC of Daewoong Pharmaceutical (IACUC‐22‐009). The experimental procedures were performed following the methods described previously, with the exception that the compounds were administered 2 weeks after bleomycin challenge. The experiments were conducted as non‐blind tests.
Mice were anesthetized with Zoletil for 10 min, and a portable mouse pulse oximeter (Veterinary Pulse Oximeter, Berry Electronic) was placed on each mouse's body. The measurements were continued to allow the recording of 3 min of a stable signal.
The collagen contents of lung tissues were measured using Sircol™ soluble collagen assay (Biocolor Ltd., S1000) following the manufacturer's instructions. Briefly, the right lung lobes were homogenized, and collagen was solubilized in 0.5 M acetic acid. Tissue extracts were incubated with Sirius red dye, and the absorbance was determined at 540 nm using a spectrophotometer. The amount of collagen was expressed relative to the wet weight of the tissues.
The lung tissues were fixed in paraformaldehyde and embedded in paraffin. The paraffin‐embedded blocks were sectioned at 4 μm and then mounted onto glass slides. After deparaffinization and rehydration, the slides were fixed with Bouin's solution (Sigma Aldrich, HT10132‐1L) for 1 h. Then, the slides were incubated with hematoxylin (Sigma Aldrich, MHS16‐500ML), Biebrich Scarlet (Sigma Aldrich, B‐6008) and acid fuchsin (Sigma Aldrich, A‐3908), phosphomolybdic (DAEJUNG, 6531‐4105) and phosphotungstic acid (DAEJUNG, 6539‐4105), aniline blue (DAEJUNG, 1087‐4125), and then 1% (v/v) acetic acid (DUKSAN, UN2789). After dehydration, the slides were mounted onto cover slips and scanned using slide scanner (3D HISTECH, Pannoramic MIDI). Fibrotic area of the images was quantified by using Image J plugin, color deconvolution 2.

[3] = system: WI‐26 VA4 cells stably expressing PARS1 FA/EA/RL mutant; test: Collagen ELISA in cells stably expressing PARS1 mutant; conditions: for Collagen level, average: average of 4 experiments; for Collagen level, single replicates: replicates of Experiments #1-#4
[4] = WI-26 VA4 Flag-PARS1 FA/EA/RL, 0.3 nM
[5] = WI-26 VA4 Flag-PARS1 FA/EA/RL, 1 nM
[6] = WI-26 VA4 Flag-PARS1 FA/EA/RL, 3 nM
[7] = WI-26 VA4 Flag-PARS1 FA/EA/RL, 10 nM
[8] = WI-26 VA4 Flag-PARS1 FA/EA/RL, 30 nM
[9] = WI-26 VA4 Flag-PARS1 FA/EA/RL, 100 nM
[10] = WI-26 VA4 Flag-PARS1 FA/EA/RL, 300 nM
[11] = WI-26 VA4 Flag-PARS1 FA/EA/RL, 1000 nM

With O=C(CC1NCCCC1O)Cn1cnc2cc(Br)c(Cl)cc2c1=O (stereo not shown) [HF, Halofuginone, reference compound] the pKd ([1]; + ATP (1 mM)) was 6.75, the pKd ([1]; - ATP) was 4.32 and the SpO2 ([2]; 0.05 mg/kg oral once a day, 2 weeks (Figs 1E and EV4G)) was “did not show an improvement in SpO2”. The “BALF total cell count, average” value ([2]; 0.05 mg/kg) was 10.46 x105 cells, the “BALF total cell count, single animal” value ([2]; 0.05 mg/kg) was 10 x105 cells and 12 x105 cells and 9.3 x105 cells and 11 x105 cells and the “Collagen contents, average” value ([2]; 0.05 mg/kg) was 308.0 μg/right lung. The “Collagen contents, single animal” value ([2]; 0.05 mg/kg) was 314 μg/right lung and 298 μg/right lung and 320 μg/right lung and 264 μg/right lung and 344 μg/right lung, the “Fibrotic area, average” value ([2]; 0.05 mg/kg) was 275.3 % of control and the “Fibrotic area, single animal” value ([2]; 0.05 mg/kg) was 303.9 % of control and 169.0 % of control and 380.1 % of control and 194.5 % of control and 329.1 % of control. For the same molecule, the “SpO2, average” value ([2]; 0.05 mg/kg) was 71.2%, the “SpO2, single animal” value ([2]; 0.05 mg/kg) was 72% and 64% and 66% and 76% and 78% and the “BALF total cell count, average” value ([2]; 0.1 mg/kg) was 7.38 x105 cells. For the same molecule, the “BALF total cell count, single animal” value ([2]; 0.1 mg/kg) was 7.2 x105 cells and 9 x105 cells and 5.1 x105 cells and 7.4 x105 cells and 8.2 x105 cells, the “Collagen contents, average” value ([2]; 0.1 mg/kg) was 231.8 μg/right lung and the “Collagen contents, single animal” value ([2]; 0.1 mg/kg) was 254 μg/right lung and 195 μg/right lung and 275 μg/right lung and 201 μg/right lung and 234 μg/right lung. The “Fibrotic area, average” value ([2]; 0.1 mg/kg) was 171.2 % of control, the “Fibrotic area, single animal” value ([2]; 0.1 mg/kg) was 180.4 % of control and 138.3 % of control and 115.6 % of control and 249.0 % of control and 172.5 % of control and the “SpO2, average” value ([2]; 0.1 mg/kg) was 80.0%. The “SpO2, single animal” value ([2]; 0.1 mg/kg) was 78% and 81% and 85% and 82% and 74%, the “collagen deposition, Masson's trichrome staining” value ([2]; lung tissue (Fig 1H and I)) was “decreased collagen deposition in the interstitial spaces” and the fibrotic properties ([2]; model 1, drug administration from day 7) was “significantly reduced fibrotic properties”. For the same molecule, the pIC50 ([3]; Homo sapiens, WI26VA4, read-out: IC50, collagen level) was 7.81, the “Collagen level, average” value [3, 4] was 101.54 % of control and the “Collagen level, single replicates” value [3, 4] was 102.13 % of control and 120.79 % of control and 96.95 % of control and 94.78 % of control and 97.01 % of control and 91.61 % of control and 85.22 % of control and 99.08 % of control and 88.51 % of control and 103.40 % of control and 115.28 % of control and 123.69 % of control. The “Collagen level, average” value [3, 5] was 101.93 % of control, the “Collagen level, single replicates” value [3, 5] was 100.26 % of control and 124.52 % of control and 104.32 % of control and 114.35 % of control and 95.53 % of control and 102.09 % of control and 95.23 % of control and 96.53 % of control and 98.60 % of control and 104.60 % of control and 92.58 % of control and 94.60 % of control and the “Collagen level, average” value [3, 6] was 97.24 % of control. For the same molecule, the “Collagen level, single replicates” value [3, 6] was 74.39 % of control and 119.08 % of control and 111.81 % of control and 77.98 % of control and 96.46 % of control and 94.83 % of control and 78.75 % of control and 99.39 % of control and 89.90 % of control and 103.30 % of control and 102.16 % of control and 118.87 % of control, the “Collagen level, average” value [3, 7] was 70.83 % of control and the “Collagen level, single replicates” value [3, 7] was 64.31 % of control and 91.60 % of control and 60.26 % of control and 74.23 % of control and 77.87 % of control and 69.39 % of control and 82.84 % of control and 75.26 % of control and 63.48 % of control and 78.01 % of control and 54.94 % of control and 57.79 % of control. The “Collagen level, average” value [3, 8] was 26.11 % of control, the “Collagen level, single replicates” value [3, 8] was 25.57 % of control and 24.68 % of control and 22.36 % of control and 32.03 % of control and 25.38 % of control and 25.85 % of control and 26.88 % of control and 24.32 % of control and 26.43 % of control and 20.94 % of control and 29.04 % of control and 29.85 % of control and the “Collagen level, average” value [3, 9] was 4.47 % of control. The “Collagen level, single replicates” value [3, 9] was 4.44 % of control and 3.82 % of control and 4.24 % of control and 4.79 % of control and 5.13 % of control and 4.94 % of control and 4.02 % of control and 4.80 % of control and 4.41 % of control and 3.44 % of control and 4.93 % of control and 4.63 % of control, the “Collagen level, average” value [3, 10] was 3.35 % of control and the “Collagen level, single replicates” value [3, 10] was 2.94 % of control and 2.13 % of control and 2.73 % of control and 2.78 % of control and 5.38 % of control and 5.19 % of control and 3.51 % of control and 3.53 % of control and 4.16 % of control and 2.06 % of control and 3.52 % of control and 2.22 % of control. For the same molecule, the “Collagen level, average” value [3, 11] was 4.10 % of control, the “Collagen level, single replicates” value [3, 11] was 4.74 % of control and 3.22 % of control and 4.71 % of control and 3.16 % of control and 4.63 % of control and 4.53 % of control (2×) and 4.37 % of control and 4.67 % of control and 2.44 % of control and 4.55 % of control and 3.67 % of control and the “HillSlope, collagen level” value ([3]; WI-26 VA4 Flag-PARS1 FA/EA/RL, four-parameter fit) was -1.829. For the same molecule, the “LogIC50, collagen level” value ([3]; WI-26 VA4 Flag-PARS1 FA/EA/RL, log of concentration in nM, four-parameter fit) was 1.188.
